Ki data for eight compounds are collected here from ChEMBL document CHEMBL1148875, “Benzopyrans as selective estrogen receptor beta agonists (SERBAs). Part 2: structure-activity relationship studies on the benzopyran scaffold” (Bioorg Med Chem Lett, 2007).

The Ki is the equilibrium dissociation constant of an inhibitor or competing ligand from its target. Read a low Ki as a stronger hold on the target.

For one experiment, the target named is T1, Estrogen receptor (Homo sapiens, UniProt P03372).
T1 sequence (P03372 whole entry): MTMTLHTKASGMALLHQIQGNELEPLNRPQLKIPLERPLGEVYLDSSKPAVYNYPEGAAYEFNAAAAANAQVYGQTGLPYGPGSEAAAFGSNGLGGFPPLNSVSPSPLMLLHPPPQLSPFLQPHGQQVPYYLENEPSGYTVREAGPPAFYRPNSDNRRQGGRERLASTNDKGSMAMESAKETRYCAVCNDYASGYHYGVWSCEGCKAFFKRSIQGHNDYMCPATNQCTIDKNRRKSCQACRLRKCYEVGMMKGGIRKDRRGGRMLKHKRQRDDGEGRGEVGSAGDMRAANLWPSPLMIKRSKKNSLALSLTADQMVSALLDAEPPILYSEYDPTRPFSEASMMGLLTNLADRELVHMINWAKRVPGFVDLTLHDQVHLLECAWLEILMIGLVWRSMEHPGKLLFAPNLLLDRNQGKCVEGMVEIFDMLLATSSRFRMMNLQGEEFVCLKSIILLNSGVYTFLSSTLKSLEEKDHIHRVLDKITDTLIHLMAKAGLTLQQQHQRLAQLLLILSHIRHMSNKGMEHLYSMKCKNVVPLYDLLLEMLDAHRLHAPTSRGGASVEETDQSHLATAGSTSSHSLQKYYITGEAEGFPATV
The experiment can be described thus: Binding affinity to human ERalpha.

The target of the next experiment is Estrogen receptor beta (Homo sapiens, UniProt Q92731). In words: Binding affinity to human ERbeta.
Sequence of Estrogen receptor beta (Q92731 whole entry): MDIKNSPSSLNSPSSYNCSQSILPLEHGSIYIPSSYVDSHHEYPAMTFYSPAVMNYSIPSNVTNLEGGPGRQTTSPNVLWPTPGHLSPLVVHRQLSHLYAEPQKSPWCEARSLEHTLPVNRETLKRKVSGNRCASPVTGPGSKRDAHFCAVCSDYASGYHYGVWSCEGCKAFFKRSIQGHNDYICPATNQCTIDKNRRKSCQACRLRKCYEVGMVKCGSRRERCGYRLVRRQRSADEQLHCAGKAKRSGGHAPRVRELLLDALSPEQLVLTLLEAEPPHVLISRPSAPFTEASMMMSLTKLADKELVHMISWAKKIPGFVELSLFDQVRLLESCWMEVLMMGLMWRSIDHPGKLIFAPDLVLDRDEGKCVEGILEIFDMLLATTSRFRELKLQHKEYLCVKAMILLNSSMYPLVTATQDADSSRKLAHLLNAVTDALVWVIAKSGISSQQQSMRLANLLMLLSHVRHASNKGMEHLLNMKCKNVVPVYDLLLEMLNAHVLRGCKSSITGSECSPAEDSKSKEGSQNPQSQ

As for `Oc1ccc([C@H]2Oc3ccc(O)cc3[C@H]3CCCC[C@H]32)cc1`, the Ki on Estrogen receptor was 2.88 nM; on Estrogen receptor beta it was 0.63 nM.

The compound `Oc1ccc([C@@H]2CCc3cc(O)ccc3O2)cc1` yielded an inhibition constant Ki at Estrogen receptor beta of 20.8 nM.

Turning to `Oc1ccc([C@H]2Oc3cccc(O)c3[C@H]3CCC[C@H]32)cc1`, the Ki at Estrogen receptor worked out at 0.35 nM; at Estrogen receptor beta it was 0.66 nM. On Estrogen receptor, `Oc1ccc2c(c1)[C@H]1CCC[C@H]1[C@@H](c1ccccc1)O2` displayed a Ki of 267 nM.

Turning to `Oc1ccc([C@H]2Oc3ccccc3[C@H]3CCC[C@H]32)cc1`, the Ki on Estrogen receptor is 40 nM; at Estrogen receptor beta, 22.1 nM. Regarding `Oc1cccc([C@H]2Oc3ccc(O)cc3[C@H]3CCC[C@H]32)c1`, the affinity at Estrogen receptor corresponds to a Ki of 65 nM. Take `Oc1ccc([C@H]2Oc3ccc(O)cc3[C@H]3CCCCC[C@H]32)cc1`: the Ki turned out to be 6.11 nM on Estrogen receptor and 0.88 nM on Estrogen receptor beta. For `Oc1ccc([C@H]2Oc3cc(O)ccc3[C@H]3CCC[C@H]32)cc1`, in that order: 41 nM and 18.9 nM.
